Laboratory results from ChEMBL document CHEMBL4651402, “Screening of ~5500 FDA-approved drugs and clinical candidates for anti-SARS-CoV-2 activity” (2021).
pIC50: −log10 of the molar value. Where a name gives a salt, the structure may show the parent alone.

Test system: SARS-CoV-2
Experiment: microbe, parasite or virus in culture
Details: Severe acute respiratory syndrome coronavirus 2, Vero C1008, 48 h; for IC50: read-out: pIC50 (converted)

Row | SMILES | pIC50 | IC50 [µM]
1 | CC1(C)OC(=O)NC1=O [DIMETHADIONE] | < 4.70 | > 20
2 | CCCCc1cc2ccccc2c(OCCN(C)C)n1 [DIMETHISOQUIN] | < 4.70 | > 20
3 | COC(=O)/C=C/C(=O)OC [DIMETHYL FUMARATE] | < 4.70 | > 20
4 | CN(C)CCO [DIMETHYLAMINOETHANOL] | < 4.70 | > 20
5 | CCc1cnn2c(NCc3ccc[n+]([O-])c3)cc(N3CCCC[C@H]3CCO)nc12 [DINACICLIB] | < 4.70 | > 20
6 | Cc1c(C(N)=O)cc([N+](=O)[O-])cc1[N+](=O)[O-] [DINITOLMIDE] | < 4.70 | > 20
7 | CCCCC[C@H](O)/C=C/[C@H]1[C@H](O)CC(=O)[C@@H]1C/C=C\CCCC(=O)O [DINOPROSTONE] | < 4.70 | > 20
8 | CCCCC[C@H](O)/C=C/[C@@H]1[C@@H](C/C=C\CCCC(=O)O)[C@@H](O)C[C@H]1O [DINOPROST] | < 4.70 | > 20
9 | COc1ccc(-c2cc(=O)c3c(O)cc(O)cc3o2)cc1O [DIOSMETIN] | < 4.70 | > 20
10 | c1ccc(C2(c3ccccc3)OCC(C3CCCCN3)O2)cc1 (stereo unspecified) [DIOXADROL] | < 4.70 | > 20
11 | CCCCCCCCCC1(C)OCC(COC(N)=O)O1 (stereo unspecified) [DIOXAMATE] | < 4.70 | > 20
12 | CCOC(=O)C(CCN1CCOCC1)(c1ccccc1)c1ccccc1 [DIOXAPHETYL BUTYRATE] | < 4.70 | > 20
13 | COc1ccc(C(=O)c2ccccc2O)c(O)c1 [DIOXYBENZONE] | < 4.70 | > 20
14 | O=c1c(-c2ccccc2)c1-c1ccccc1 [DIPHENCYPRONE] | < 4.70 | > 20
15 | OC(CCCN1CCCCC1)(c1ccccc1)c1ccccc1 [DIPHENIDOL] | < 4.70 | > 20
16 | CCOC(=O)C1(c2ccccc2)CCN(CCC(C#N)(c2ccccc2)c2ccccc2)CC1 [DIPHENOXYLATE] | < 4.70 | > 20
17 | CNCC(O)c1ccc(OC(=O)C(C)(C)C)c(OC(=O)C(C)(C)C)c1 (stereo unspecified) [DIPIVEFRIN] | < 4.70 | > 20
18 | CC(=O)Oc1ccccc1C(=O)Oc1ccccc1C(=O)O [DIPLOSALSALATE] | < 4.70 | > 20
19 | CCOc1ccc(CC2=NCCc3cc(OC(C)C)c(OC(C)C)cc32)cc1OCC [DIPROTEVERINE] | < 4.70 | > 20
20 | OCCN(CCO)c1nc(N2CCCCC2)c2nc(N(CCO)CCO)nc(N3CCCCC3)c2n1 [DIPYRIDAMOLE] | < 4.70 | > 20
21 | CC[C@H]1OC(=O)[C@H](C)[C@@H](O[C@H]2C[C@@](C)(OC)[C@@H](O)[C@H](C)O2)[C@H](C)[C@@H](O[C@@H]2O[C@H](C)C[C@H](N(C)C)[C@H]2O)[C@](C)(O)C[C@@H](C)[C@@H]2N[C@@H](COCCOC)O[C@H]([C@H]2C)[C@]1(C)O [DIRITHROMYCIN] | < 4.70 | > 20
22 | COC(=O)/C=C/C(=O)OCCN1C(=O)CCC1=O [DIROXIMEL FUMARATE] | < 4.70 | > 20
23 | CC(C)N(CCC(CCN1CCCCC1)(C(N)=O)c1ccccc1Cl)C(C)C (stereo unspecified) [DISOBUTAMIDE] | < 4.70 | > 20
24 | C[C@@H]1CC[C@@]2(OC1)O[C@H]1C[C@H]3[C@@H]4CC=C5C[C@@H](O)CC[C@]5(C)[C@H]4CC[C@]3(C)[C@H]1[C@@H]2C [DISOGENIN] | < 4.70 | > 20
25 | CC(C)N(CCC(C(N)=O)(c1ccccc1)c1ccccn1)C(C)C (stereo unspecified) [DISOPYRAMIDE] | < 4.70 | > 20
26 | Cc1cc(CCCCCCCOc2ccc(C3=NCCO3)cc2)on1 [DISOXARIL] | < 4.70 | > 20
27 | OCCN(CCO)c1nc(-c2ccccc2)c(-c2ccccc2)o1 [DITAZOLE] | < 4.70 | > 20
28 | CCN1/C(=C/C=C/C=C/c2sc3ccccc3[n+]2CC)Sc2ccccc21 [DITHIAZANINE IODIDE] | < 4.70 | > 20
